According to the kinase profiling compilation of Christmann-Franck et al. (2016):

Legend:
Experiment in all cases: KINOMEscan competition binding
Conditions in all cases: compound 10.0 µM
ACVR1B (human) = ACVR1B (human) (UniProt P36896)
ACVR2B (human) = ACVR2B (human) (UniProt Q13705)
ALK (human) = ALK (human) (UniProt Q9UM73)
CAMKK2 (human) = CAMKK2 (human) (UniProt Q96RR4)
CDK19 (human) = CDK19 (human) (UniProt Q9BWU1)
CDK3 (human) = CDK3 (human) (UniProt Q00526)
CHEK2 (human) = CHEK2 (human) (UniProt O96017)
CHUK (human) = CHUK (human) (UniProt O15111)
CLK2 (human) = CLK2 (human) (UniProt P49760)
EPHA4 (human) = EPHA4 (human) (UniProt P54764)
FYN (human) = FYN (human) (UniProt P06241)
GSK3A (human) = GSK3A (human) (UniProt P49840)
IKBKE (human) = IKBKE (human) (UniProt Q14164)
LTK (human) = LTK (human) (UniProt P29376)
MAP2K1 (human) = MAP2K1 (human) (UniProt Q02750)
MAP3K3 (human) = MAP3K3 (human) (UniProt Q99759)
Chain of MAP3K3 (human) (Q99759 whole entry, looked up): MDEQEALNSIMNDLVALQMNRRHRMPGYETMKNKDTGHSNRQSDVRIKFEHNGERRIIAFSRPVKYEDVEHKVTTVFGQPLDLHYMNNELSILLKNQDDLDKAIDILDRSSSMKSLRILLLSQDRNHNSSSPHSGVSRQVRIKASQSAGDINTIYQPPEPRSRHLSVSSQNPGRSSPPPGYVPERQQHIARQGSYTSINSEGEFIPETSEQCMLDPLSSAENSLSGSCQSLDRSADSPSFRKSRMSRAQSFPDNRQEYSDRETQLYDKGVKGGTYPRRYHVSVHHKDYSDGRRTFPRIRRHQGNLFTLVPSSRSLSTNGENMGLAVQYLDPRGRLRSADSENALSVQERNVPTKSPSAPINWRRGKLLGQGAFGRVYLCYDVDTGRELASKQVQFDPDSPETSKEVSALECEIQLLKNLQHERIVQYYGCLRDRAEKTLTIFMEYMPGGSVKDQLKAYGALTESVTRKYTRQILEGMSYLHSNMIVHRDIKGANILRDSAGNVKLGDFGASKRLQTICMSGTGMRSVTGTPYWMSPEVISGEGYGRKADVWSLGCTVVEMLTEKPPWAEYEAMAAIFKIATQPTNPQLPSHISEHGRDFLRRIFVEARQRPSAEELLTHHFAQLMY

MAP3K5 (human) = MAP3K5 (human) (UniProt Q99683)
MAPK11 (human) = MAPK11 (human) (UniProt Q15759)
MAPK9 (human) = MAPK9 (human) (UniProt P45984)
MARK2 (human) = MARK2 (human) (UniProt Q7KZI7)
NEK5 (human) = NEK5 (human) (UniProt Q6P3R8)
PAK2 (human) = PAK2 (human) (UniProt Q13177)
PIP5K1A (human) = PIP5K1A (human) (UniProt Q99755)
PRKD2 (human) = PRKD2 (human) (UniProt Q9BZL6)
PRKX (human) = PRKX (human) (UniProt P51817)
ROCK2 (human) = ROCK2 (human) (UniProt O75116)
Chain of ROCK2 (human) (O75116 whole entry, looked up): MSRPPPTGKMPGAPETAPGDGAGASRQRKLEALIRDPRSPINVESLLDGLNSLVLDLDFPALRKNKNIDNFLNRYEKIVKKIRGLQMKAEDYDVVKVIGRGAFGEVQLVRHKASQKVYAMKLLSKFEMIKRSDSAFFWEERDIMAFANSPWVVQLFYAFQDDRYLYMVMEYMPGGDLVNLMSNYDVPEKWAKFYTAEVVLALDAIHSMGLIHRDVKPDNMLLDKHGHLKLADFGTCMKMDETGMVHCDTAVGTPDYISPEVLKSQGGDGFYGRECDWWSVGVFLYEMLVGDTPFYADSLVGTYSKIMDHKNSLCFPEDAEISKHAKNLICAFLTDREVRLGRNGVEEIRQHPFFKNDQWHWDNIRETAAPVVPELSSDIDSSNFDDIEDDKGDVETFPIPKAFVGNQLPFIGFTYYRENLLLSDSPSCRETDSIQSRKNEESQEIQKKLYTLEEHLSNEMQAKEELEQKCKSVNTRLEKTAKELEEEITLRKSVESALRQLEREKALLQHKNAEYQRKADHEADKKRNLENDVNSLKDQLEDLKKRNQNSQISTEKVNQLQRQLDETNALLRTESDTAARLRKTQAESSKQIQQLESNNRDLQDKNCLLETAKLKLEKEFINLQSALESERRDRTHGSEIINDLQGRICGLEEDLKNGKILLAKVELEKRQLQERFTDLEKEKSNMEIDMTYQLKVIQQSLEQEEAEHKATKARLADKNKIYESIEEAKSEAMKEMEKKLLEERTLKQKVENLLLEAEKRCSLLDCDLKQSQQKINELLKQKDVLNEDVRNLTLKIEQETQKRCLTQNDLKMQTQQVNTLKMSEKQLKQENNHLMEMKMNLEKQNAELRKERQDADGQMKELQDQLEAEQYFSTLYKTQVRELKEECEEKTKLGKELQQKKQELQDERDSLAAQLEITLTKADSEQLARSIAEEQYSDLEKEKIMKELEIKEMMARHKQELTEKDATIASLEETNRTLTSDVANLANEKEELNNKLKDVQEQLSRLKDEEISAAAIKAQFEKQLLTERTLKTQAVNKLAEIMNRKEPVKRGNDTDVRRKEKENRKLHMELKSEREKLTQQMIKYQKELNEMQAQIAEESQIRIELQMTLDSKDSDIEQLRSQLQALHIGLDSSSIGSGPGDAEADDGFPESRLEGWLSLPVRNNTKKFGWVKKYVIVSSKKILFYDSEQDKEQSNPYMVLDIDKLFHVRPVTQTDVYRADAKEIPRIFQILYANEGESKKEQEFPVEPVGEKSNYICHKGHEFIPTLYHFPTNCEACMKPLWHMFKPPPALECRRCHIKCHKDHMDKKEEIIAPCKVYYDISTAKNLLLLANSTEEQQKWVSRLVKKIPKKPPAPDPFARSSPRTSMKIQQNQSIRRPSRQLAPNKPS

RPS6KA5 KD1 (human) = RPS6KA5 KD1 (human) (UniProt O75582)
SGK110 (human) = SGK110 (human) (UniProt P0C264)
Chain of SGK110 (human) (P0C264 whole entry, looked up): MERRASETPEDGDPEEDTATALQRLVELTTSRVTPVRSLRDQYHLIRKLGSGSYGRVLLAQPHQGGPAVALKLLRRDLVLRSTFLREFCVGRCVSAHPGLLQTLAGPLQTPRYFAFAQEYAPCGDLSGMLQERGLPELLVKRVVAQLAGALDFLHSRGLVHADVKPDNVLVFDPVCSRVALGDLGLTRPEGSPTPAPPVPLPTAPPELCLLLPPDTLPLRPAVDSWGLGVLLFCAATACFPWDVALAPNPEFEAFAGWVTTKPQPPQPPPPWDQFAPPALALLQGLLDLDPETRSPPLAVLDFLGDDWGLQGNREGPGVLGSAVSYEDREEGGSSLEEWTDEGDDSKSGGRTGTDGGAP

SIK1 (human) = SIK1 (human) (UniProt P57059)
SRPK2 (human) = SRPK2 (human) (UniProt P78362)
Chain of SRPK2 (human) (P78362 whole entry, looked up): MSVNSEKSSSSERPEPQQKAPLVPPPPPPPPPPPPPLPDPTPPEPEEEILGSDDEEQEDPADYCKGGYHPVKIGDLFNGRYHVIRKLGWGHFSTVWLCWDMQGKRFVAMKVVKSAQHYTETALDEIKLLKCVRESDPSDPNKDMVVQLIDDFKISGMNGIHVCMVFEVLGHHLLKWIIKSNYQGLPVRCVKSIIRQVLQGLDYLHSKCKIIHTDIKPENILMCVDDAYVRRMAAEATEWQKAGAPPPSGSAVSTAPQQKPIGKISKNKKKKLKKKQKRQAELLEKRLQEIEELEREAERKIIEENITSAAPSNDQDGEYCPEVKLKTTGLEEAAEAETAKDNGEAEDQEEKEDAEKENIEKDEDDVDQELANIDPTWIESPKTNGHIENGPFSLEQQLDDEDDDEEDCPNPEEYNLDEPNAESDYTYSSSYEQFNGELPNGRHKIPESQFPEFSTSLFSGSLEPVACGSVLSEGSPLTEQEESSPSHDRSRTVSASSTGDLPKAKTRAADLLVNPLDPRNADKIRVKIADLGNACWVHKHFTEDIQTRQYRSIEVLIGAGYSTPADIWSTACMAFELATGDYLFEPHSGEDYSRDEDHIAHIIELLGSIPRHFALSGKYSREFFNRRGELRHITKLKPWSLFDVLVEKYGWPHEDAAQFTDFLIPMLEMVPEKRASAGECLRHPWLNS

STK17B (human) = STK17B (human) (UniProt O94768)
STK36 (human) = STK36 (human) (UniProt Q9NRP7)
SYK (human) = SYK (human) (UniProt P43405)
TESK1 (human) = TESK1 (human) (UniProt Q15569)
[1] = biological target: TYK2 JH2 pseudokinase (human) (UniProt P29597)
Chain of TYK2 JH2 pseudokinase (human) (P29597 whole entry, looked up): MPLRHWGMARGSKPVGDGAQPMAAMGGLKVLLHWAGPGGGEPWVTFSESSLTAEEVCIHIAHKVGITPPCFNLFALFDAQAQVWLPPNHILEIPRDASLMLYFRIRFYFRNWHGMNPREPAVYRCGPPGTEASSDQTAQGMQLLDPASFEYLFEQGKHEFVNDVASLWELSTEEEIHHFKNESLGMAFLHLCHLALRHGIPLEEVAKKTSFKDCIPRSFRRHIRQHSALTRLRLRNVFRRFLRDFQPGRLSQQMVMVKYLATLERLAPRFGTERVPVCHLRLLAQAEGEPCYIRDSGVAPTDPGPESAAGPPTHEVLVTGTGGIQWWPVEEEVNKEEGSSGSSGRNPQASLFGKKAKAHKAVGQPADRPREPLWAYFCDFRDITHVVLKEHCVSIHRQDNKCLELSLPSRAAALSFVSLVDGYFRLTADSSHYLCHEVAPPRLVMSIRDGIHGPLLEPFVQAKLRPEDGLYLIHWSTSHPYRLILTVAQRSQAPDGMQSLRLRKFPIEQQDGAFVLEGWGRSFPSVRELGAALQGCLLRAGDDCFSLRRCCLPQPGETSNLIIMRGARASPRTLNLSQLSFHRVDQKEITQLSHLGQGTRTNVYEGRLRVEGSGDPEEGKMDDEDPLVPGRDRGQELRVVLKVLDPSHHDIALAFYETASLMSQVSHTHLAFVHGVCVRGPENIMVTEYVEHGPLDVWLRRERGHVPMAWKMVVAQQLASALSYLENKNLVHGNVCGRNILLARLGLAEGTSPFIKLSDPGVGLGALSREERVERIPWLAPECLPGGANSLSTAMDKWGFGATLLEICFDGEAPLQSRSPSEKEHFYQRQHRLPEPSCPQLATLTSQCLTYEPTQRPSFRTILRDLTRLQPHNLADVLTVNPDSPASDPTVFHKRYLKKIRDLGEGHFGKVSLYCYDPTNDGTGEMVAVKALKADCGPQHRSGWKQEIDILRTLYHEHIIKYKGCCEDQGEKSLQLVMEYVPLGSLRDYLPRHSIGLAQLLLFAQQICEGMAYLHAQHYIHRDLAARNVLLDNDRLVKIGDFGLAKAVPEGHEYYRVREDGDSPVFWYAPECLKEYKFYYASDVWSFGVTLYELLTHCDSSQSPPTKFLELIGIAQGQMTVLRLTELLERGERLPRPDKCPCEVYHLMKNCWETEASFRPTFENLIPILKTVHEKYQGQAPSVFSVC

YES1 (human) = YES1 (human) (UniProt P07947)
EPHA2 (human) = EPHA2 (human) (UniProt P29317)
KDR (human) = KDR (human) (UniProt P35968)
MAP2K3 (human) = MAP2K3 (human) (UniProt P46734)
MAPK3 (human) = MAPK3 (human) (UniProt P27361)

Chain of ACVR1B (human) (P36896 whole entry, looked up): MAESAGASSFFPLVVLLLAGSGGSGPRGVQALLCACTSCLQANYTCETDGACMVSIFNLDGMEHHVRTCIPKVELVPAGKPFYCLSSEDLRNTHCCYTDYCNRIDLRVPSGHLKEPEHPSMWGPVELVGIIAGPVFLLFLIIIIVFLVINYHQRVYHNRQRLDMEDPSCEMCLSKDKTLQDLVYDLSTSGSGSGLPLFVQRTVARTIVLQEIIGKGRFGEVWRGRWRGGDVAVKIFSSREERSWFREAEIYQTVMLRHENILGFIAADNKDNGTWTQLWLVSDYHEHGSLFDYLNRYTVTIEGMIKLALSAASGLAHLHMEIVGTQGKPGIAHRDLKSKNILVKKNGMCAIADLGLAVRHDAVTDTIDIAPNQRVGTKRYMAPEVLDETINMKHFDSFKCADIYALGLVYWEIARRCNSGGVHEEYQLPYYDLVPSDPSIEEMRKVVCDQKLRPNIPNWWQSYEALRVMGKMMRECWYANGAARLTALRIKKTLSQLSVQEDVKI
Chain of CDK3 (human) (Q00526 whole entry, looked up): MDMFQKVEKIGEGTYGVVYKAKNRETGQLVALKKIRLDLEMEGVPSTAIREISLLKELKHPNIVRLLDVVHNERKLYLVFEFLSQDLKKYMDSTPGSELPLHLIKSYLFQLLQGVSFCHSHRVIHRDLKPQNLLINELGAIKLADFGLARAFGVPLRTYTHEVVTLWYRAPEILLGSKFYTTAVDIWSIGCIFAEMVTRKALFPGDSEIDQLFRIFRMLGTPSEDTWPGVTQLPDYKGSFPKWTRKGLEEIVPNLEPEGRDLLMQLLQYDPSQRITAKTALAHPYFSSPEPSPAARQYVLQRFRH

Structure (SMILES) | kinase still bound, per cent of control (ACVR1B (human)) | kinase still bound, per cent of control (ACVR2B (human)) | kinase still bound, per cent of control (ALK (human)) | kinase still bound, per cent of control (CAMKK2 (human)) | kinase still bound, per cent of control (CDK19 (human)) | kinase still bound, per cent of control (CDK3 (human)) | kinase still bound, per cent of control (CHEK2 (human)) | kinase still bound, per cent of control (CHUK (human)) | kinase still bound, per cent of control (CLK2 (human)) | kinase still bound, per cent of control (EPHA4 (human)) | kinase still bound, per cent of control (FYN (human)) | kinase still bound, per cent of control (GSK3A (human)) | kinase still bound, per cent of control (IKBKE (human)) | kinase still bound, per cent of control (LTK (human)) | kinase still bound, per cent of control (MAP2K1 (human)) | kinase still bound, per cent of control (MAP3K3 (human)) | kinase still bound, per cent of control (MAP3K5 (human)) | kinase still bound, per cent of control (MAPK11 (human)) | kinase still bound, per cent of control (MAPK9 (human)) | kinase still bound, per cent of control (MARK2 (human)) | other results
O=C(O)c1ccc(Nc2ncc3c(n2)-c2ccc(Cl)cc2C(c2c(F)cccc2F)=NC3)cc1 | 94% | 100% | 48% | 72% | 96% | 100% | 100% | 100% | 7.4% | 11% | 17% | 100% | 68% | 62% | 86% | 72% | 100% | 99% | 57% | 93% | kinase still bound, per cent of control (NEK5 (human)): 46%; kinase still bound, per cent of control (PAK2 (human)): 71%; kinase still bound, per cent of control (PIP5K1A (human)): 100%; kinase still bound, per cent of control (PRKD2 (human)): 92%; kinase still bound, per cent of control (PRKX (human)): 75%; kinase still bound, per cent of control (ROCK2 (human)): 89%; kinase still bound, per cent of control (RPS6KA5 KD1 (human)): 99%; kinase still bound, per cent of control (SGK110 (human)): 58%; kinase still bound, per cent of control (SIK1 (human)): 5.7%; kinase still bound, per cent of control (SRPK2 (human)): 80%; kinase still bound, per cent of control (STK17B (human)): 8.6%; kinase still bound, per cent of control (STK36 (human)): 100%; kinase still bound, per cent of control (SYK (human)): 78%; kinase still bound, per cent of control (TESK1 (human)): 100%; kinase still bound, per cent of control [1]: 100%; kinase still bound, per cent of control (YES1 (human)): 3.9%
C[C@@H](Oc1cc(-n2cnc3ccc(CN4CCN(C)CC4)cc32)sc1C(N)=O)c1ccccc1C(F)(F)F | 97% | 100% | 100% | 66% | 100% | 100% | 69% | 65% | 69% | 100% | 100% | 100% | 58% | 100% | 92% | 88% | 100% | 100% | 100% | 53% | kinase still bound, per cent of control (EPHA2 (human)): 92%; kinase still bound, per cent of control (KDR (human)): 100%; kinase still bound, per cent of control (MAP2K3 (human)): 52%; kinase still bound, per cent of control (MAPK3 (human)): 100%; kinase still bound, per cent of control (NEK5 (human)): 25%; kinase still bound, per cent of control (PAK2 (human)): 38%; kinase still bound, per cent of control (PIP5K1A (human)): 14%; kinase still bound, per cent of control (PRKD2 (human)): 27%; kinase still bound, per cent of control (PRKX (human)): 100%; kinase still bound, per cent of control (ROCK2 (human)): 16%; kinase still bound, per cent of control (RPS6KA5 KD1 (human)): 100%; kinase still bound, per cent of control (SGK110 (human)): 100%; kinase still bound, per cent of control (SIK1 (human)): 78%; kinase still bound, per cent of control (SRPK2 (human)): 59%; kinase still bound, per cent of control (STK17B (human)): 100%; kinase still bound, per cent of control (STK36 (human)): 98%; kinase still bound, per cent of control (SYK (human)): 100%; kinase still bound, per cent of control (TESK1 (human)): 100%; kinase still bound, per cent of control [1]: 100%
CCCS(=O)(=O)Nc1ccc(F)c(C(=O)c2c[nH]c3ncc(-c4ccc(Cl)cc4)cc23)c1F | 78% | 27% | 62% | 100% | 0.8% | 94% | 100% | 87% | 46% | 100% | 9.1% | 54% | 100% | 100% | 10% | 82% | 100% | 29% | 50% | 69% | kinase still bound, per cent of control (EPHA2 (human)): 99%; kinase still bound, per cent of control (KDR (human)): 31%; kinase still bound, per cent of control (MAPK3 (human)): 100%; kinase still bound, per cent of control (NEK5 (human)): 100%; kinase still bound, per cent of control (PAK2 (human)): 80%; kinase still bound, per cent of control (PIP5K1A (human)): 100%; kinase still bound, per cent of control (PRKD2 (human)): 95%; kinase still bound, per cent of control (PRKX (human)): 100%; kinase still bound, per cent of control (ROCK2 (human)): 77%; kinase still bound, per cent of control (RPS6KA5 KD1 (human)): 98%; kinase still bound, per cent of control (SGK110 (human)): 100%; kinase still bound, per cent of control (SIK1 (human)): 2.8%; kinase still bound, per cent of control (SRPK2 (human)): 100%; kinase still bound, per cent of control (STK17B (human)): 88%; kinase still bound, per cent of control (STK36 (human)): 4.6%; kinase still bound, per cent of control (SYK (human)): 66%; kinase still bound, per cent of control (TESK1 (human)): 29%; kinase still bound, per cent of control [1]: 100%; kinase still bound, per cent of control (YES1 (human)): 18%
